Data: paper PMC7533260, “Design and tests of prospective property predictions for novel antimalarial 2-aminopropylaminoquinolones” (Journal of Computer-Aided Molecular Design, 2020)

Assays:
[1] = biological target: full-length enzyme from P. falciparum (PfDHODH); set-up: method as in PMID 7909690; settings: after solubilization in Triton X-100; cited from earlier work
[2] = biological target: truncated enzyme (PfDHODH); set-up: method as in PMID 16510978; settings: assayed under similar conditions; cited from earlier work
s-RrDHODH = biological target: s-RrDHODH; set-up: method as in PMID 16510978; settings: read-out: Ki, s-RrDHODH from rat; cited from earlier work
human enzyme (DHODH) = biological target: human enzyme (DHODH); set-up: method as in PMID 16510978; settings: cited from earlier work
s-PfDHODH = biological target: T1, s-PfDHODH (Plasmodium falciparum, UniProt Q08210); experiment: Inhibition of s-PfDHODH in vitro (Tres Cantos laboratory); settings: read-out: s-PfDHODH in vitro IC50; assayed at the Tres Cantos laboratory
T1 sequence (Q08210 158-569 limits assumed): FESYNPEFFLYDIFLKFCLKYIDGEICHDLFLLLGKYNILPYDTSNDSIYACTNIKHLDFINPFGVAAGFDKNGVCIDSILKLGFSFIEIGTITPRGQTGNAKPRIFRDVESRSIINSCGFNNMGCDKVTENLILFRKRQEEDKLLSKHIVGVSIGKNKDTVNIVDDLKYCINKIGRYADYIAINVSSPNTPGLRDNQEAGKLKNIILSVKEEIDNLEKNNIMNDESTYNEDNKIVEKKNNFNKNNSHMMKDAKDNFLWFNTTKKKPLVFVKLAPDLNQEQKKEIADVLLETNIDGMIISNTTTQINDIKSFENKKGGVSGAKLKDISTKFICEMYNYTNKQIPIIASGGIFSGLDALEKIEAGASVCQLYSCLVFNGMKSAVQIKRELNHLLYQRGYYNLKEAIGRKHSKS
From the text: The literature data set used to build our PfDHODH inhibition models was based on in vitro assays carried out using the truncated, soluble form of the enzyme introduced by Baldwin et al. [10].

intact PfDHODH = experiment: Rescue from growth inhibition by transfection with ScDHODH (Dd2attB_yeastDHODH vs parental Dd2attB); type: cell-based, Plasmodium falciparum; settings: P. falciparum in blood culture; Tres Cantos, previously unpublished
From the text: Fortunately, there is a way to address this question, though the method is somewhat indirect. P. falciparum parasites engineered to express DHODH from the yeast Saccharamyces cerevisiae (ScDHODH) use fumarate as an oxidizing agent instead of ubiquinone, so their growth is not inhibited by (i.e., they are “rescued from”) inhibitors that compete with ubiquinone. Painter et al. used this technique to validate PfDHODH as an antimalarial drug target.
Unbeknownst to the Simulations Plus and U.C. Riverside groups, the Tres Cantos group had already tested several 2-aminoquinolone actives from the GSK antimalarial data set for rescue by ScDHODH transfection. […] An additional sixteen 2-amino-4-quinolones having different bridging groups were also assayed; three of these were clearly subject to rescue, whereas three yielded ambiguous results.
The Dd2 cell line containing yeast dihydroorotate dehydrogenase (DHODH) and its parental strain were cultured as described in 4.3.1 and potency of compounds determined following procedures outlined in 4.3.2. The ScURA1 gene from Saccharomyces cerevisiae was amplified from genomic DNA and cloned into the pLN-14 vector. The P. falciparum Dd2attB strain was transfected by electroporation, and stable transfectants were selected with blasticidin. Both the Dd2attB_yeastDHODH strain and its parental strain, Dd2attB, were used in these assays to determine if parasite growth inhibition was mediated by inhibition of PfDHODH following rationale previously described in Painter et al..

[3] = tested on: P. falciparum 3D7 (chloroquine-susceptible); experiment: XC50 in asynchronous blood culture, [3H]hypoxanthine incorporation, strain 3D7; type: cell-based; settings: Plasmodium falciparum, concentration required to reduce parasite growth rate by 50%
Procedure: (§1) Antimalarial activity in blood culture was determined as previously described at the University of California, Riverside, under conditions essentially identical to those used by GSK [19].
(§2) P. falciparum 3D7A and Dd2 strains used in this study were obtained from the Malaria Research and Reference Reagent Resource Center (MR4). Parasites were grown in human erythrocytes (obtained from a transfusion blood bank in Madrid, Spain) with Albumax II medium as previously described. RPMI 1640 medium (Gibco) was supplemented with 0.5% Albumax II (Invitrogen), 2% D-sucrose (Sigma-Aldrich), 0.3% glutamine (Sigma-Aldrich), and 150 µM hypoxanthine (Sigma-Aldrich). Cultures were maintained at 37°C at an atmosphere of 5% O2, 5% CO2, and 90% N2.
(§3) Parasite growth inhibition assays and 50% inhibitory concentration (XC50) determinations were carried out by following standard methods using the [^3H]hypoxanthine incorporation assay. Briefly, cultures with 0.5% parasitemia and 2% hematocrit were incubated with the drug as described for 48 h. After this period, parasites were harvested and the amount of incorporated radiolabeled precursor was determined. Radioactivity was added 24 h before harvesting of the parasites.

[4] = tested on: P. falciparum Dd2 (chloroquine-resistant); experiment: XC50 in asynchronous blood culture, [3H]hypoxanthine incorporation, strain Dd2; type: cell-based, Plasmodium falciparum; settings: for IC50: Plasmodium falciparum, DD2, concentration required to reduce parasite growth rate by 50%, chloroquine-resistant strain, asynchronous blood culture; for Resistance ratio (±): ratio of XC50 between resistant (Dd2) and susceptible (3d7) strains
Procedure: as §1, §2, §3

SMILES | rescue of parasites from growth inhibition by ScDHODH transfection (intact PfDHODH) | IC50 [3] | IC50 [4] | Resistance ratio (±) [4] | also measured
O=C1C(O)=C([C@H]2CC[C@H](c3ccc(Cl)cc3)CC2)C(=O)c2ccccc21 [Atovaquone] | – | – | – | – | Ki [1]: 27000 nM; Ki [2]: > 500000 nM; Ki (s-RrDHODH): ~80 nM; Ki (human enzyme (DHODH)): ~2000 nM
O=C(O)C(O)C(=O)O [CID 44,537,350] | – | – | – | – | IC50 (s-PfDHODH): 860 nM
O=c1cc(NCC2(CNCc3cn(Cc4ccccc4)c4ccccc34)CCCCC2)[nH]c2ccccc12 [CID 10300864] | rescued | – | – | – | –
CCOc1c(CNCCCNc2cc(=O)c3ccccc3[nH]2)cc(Br)cc1OC [CID 44373601] | not rescued | – | – | – | –
O=c1cc(NC[C@H]2CCC[C@@H]2NC2CCCc3c2[nH]c2ccccc32)[nH]c2ccccc12 (stereo partly drawn) [CID 44533954] | not rescued | – | – | – | –
O=c1cc(NCCCNCc2sc(Br)nc2Br)[nH]c2ccccc12 [CID 44534653] | rescued | – | – | – | –
COc1ccc2[nH]c(NCC3(CNC4CCNc5ccccc54)CCCC3)cc(=O)c2c1 (stereo not drawn) [Compound 11c, 6-methoxy-2-(1-((1,2,3,4-tetrahydroquinolin-4-yl)aminomethyl)cyclopentyl)methylamino-1H-quinolin-4-one] | – | 0.37 µM | 1.78 µM | 4.8 | –
Cn1cc(CNCC2(CNc3cc(=O)c4ccccc4[nH]3)CCCC2)n(C)c1=O [Compound 12a, 2-(1-((1,3-dimethyl-2-oxo-imidazol-4-yl)methylaminomethyl)cyclopentyl)methylamino-1H-quinolin-4-one] | – | 10 µM | 46 µM | 4.6 | –
Cn1cc(CNCC2(CNc3cc(=O)c4cc(Cl)ccc4[nH]3)CCCC2)n(C)c1=O [Compound 12b, 6-chloro-2-(1-((1,3-dimethyl-2-oxo-imidazol-4-yl)methylaminomethyl)cyclopentyl)methylamino-1H-quinolin-4-one] | – | 1.61 µM | 6.4 µM | 3.9 | –
